Measured values reported in US20160046604A1, “HETEROARYL SUBSTITUTED INDAZOLES” (BAYER PHARMA AKTIENGESELLSCHAFT, priority 2013, published 2016).
pIC50: −log10 of the molar value. Read-outs that look alike come from different tables or passages of the source.

Columns and labels:
[1] = biological target: T1, catalytic domain of human Bub1 (amino acids 704-1085) (Homo sapiens, UniProt O43683); assay: Bub1 kinase assay (TR-FRET); assay type: biochemical
T1 construct: catalytic domain of human Bub1 (amino acids 704-1085); His6 (N); made in house; host or cells: Hi5 insect cells
T1 sequence (O43683 704-1085): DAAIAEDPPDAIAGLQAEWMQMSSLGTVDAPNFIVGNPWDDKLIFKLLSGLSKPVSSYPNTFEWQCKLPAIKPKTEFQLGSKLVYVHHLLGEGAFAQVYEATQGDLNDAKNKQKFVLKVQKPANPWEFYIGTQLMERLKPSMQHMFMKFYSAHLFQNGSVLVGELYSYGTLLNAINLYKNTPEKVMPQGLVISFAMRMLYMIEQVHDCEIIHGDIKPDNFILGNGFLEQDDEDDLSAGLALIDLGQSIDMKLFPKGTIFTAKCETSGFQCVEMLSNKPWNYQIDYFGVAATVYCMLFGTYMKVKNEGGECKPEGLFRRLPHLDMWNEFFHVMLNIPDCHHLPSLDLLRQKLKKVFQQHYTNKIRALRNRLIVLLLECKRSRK
Description: To this end, 100-fold concentrated compound solutions (in DMSO) were previously prepared by serial dilution (1:3.4) of 2 mM stocks in a clear low volume 384-well source microtiter plate (Greiner Bio-One, Frickenhausen, Germany), from which 50 nL of compounds were transferred into a black low volume test microtiter plate from the same supplier. […] The resulting mixture (5 μL final volume) was incubated at 22° C. during 60 min., and the reaction was stopped by the addition of 5 μL of an aqueous EDTA-solution (50 mM EDTA, in 100 mM HEPES pH 7.5 and 0.2% (w/v) bovine serum albumin) which also contained the TR-FRET detection reagents (0.2 μM streptavidin-XL665 [Cisbio Bioassays, Codolet, France] and 1 nM anti-phoshoSerine antibody [Merck Millipore, cat. #35-001] and 0.4 nM LANCE EU-W1024 labeled anti-mouse IgG antibody [Perkin-Elmer, product no. AD0077, alternatively a Terbium-cryptate-labeled anti-mouse IgG antibody from Cisbio Bioassays can be used]). The stopped reaction mixture was further incubated 1 h at 22° C. in order to allow the formation of complexes between peptides and detection reagents. Subsequently, the amount of product was evaluated by measurement of the resonance energy transfer from the Eu-chelate-antibody complex recognizing the Phosphoserine residue to the streptavidin-XL665 bound to the biotin moiety of the peptide. […] IC50 values were calculated by fitting the normalized inhibition data to a 4-parameter logistic equation (Minimum, Maximum, IC50, Hill; Y=Max+(Min−Max)/(1+(X/IC50)Hill)).

[2] = test system: HeLa human cervical tumor cells; assay: Proliferation assay (HeLa cell line); settings: 96 h, read-out: Biological Assay 2: Proliferation assay (HeLa cell line) median IC50;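 further: crystal violet staining, absorbance at 595 nm, 0.001–10 µM test range, 4-day exposure, 0% is cell number at dosing and 100% untreated growth, IC50 from 4-parameter fit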
Description: Cultivated HeLa human cervical tumor cells (cells were ordered from ATCC CCL-2) were plated at a density of 3000 cells/well in a 96-well multititer plates in 200 microL DMEM/HAMS F12 culture medium (Biochrom F4815) supplemented with 10% fetal calf serum. After 24 hours, the cells of one plate (zero-point plate) were stained with crystal violet (see below), while the medium of the other plates was replaced by fresh culture medium (200 microL) containing the test substances in various concentrations (0 microM, as well as in the range of 0.001-10 microM; the final concentration of the solvent dimethyl sulfoxide was 0.5%). The cells were incubated for 4 days in the presence of test substances. Cell proliferation was determined by staining the cells with crystal violet: the cells were fixed by adding 20 microL/measuring point of an 11% glutaric aldehyde solution for 15 minutes at room temperature. After three washing cycles of the fixed cells with water, the plates were dried at room temperature. The cells were stained by adding 100 microL/measuring point of a 0.1% crystal violet solution (pH 3.0). After three washing cycles of the stained cells with water, the plates were dried at room temperature. The dye was dissolved by adding 100 microL/measuring point of a 10% acetic acid solution. Absorption was determined by photometry at a wavelength of 595 nm. The change of cell number, in percent, was calculated by normalization of the measured values to the absorption values of the zero-point plate (=0%) and the absorption of the untreated (0 microM) cells (=100%). The IC50 values were determined by means of a 4 parameter fit.

[3] = TR-FRET, recombinant catalytic domain of human Bub1, ATP 10 μM, peptide substrate 1 μM, 60 min at 22° C., read-out: Biological Assay 1: Bub1 kinase assay median IC50

pIC50 [1, 3]	pIC50 [2]	pIC50 [1]	Structure (SMILES)
7.38	< 5.00		COc1cnc(-c2nn(Cc3cnn(C)c3C)c3ccccc23)nc1Nc1ccncc1 [Example 2-1-4, 2-{1-[(1,5-dimethyl-1H-pyrazol-4-yl)methyl]-1H-indazol-3-yl}-5-methoxy-N-(pyridin-4-yl)pyrimidin-4-amine]
	< 5.00	6.82	Cc1noc(C)c1Cn1nc(-c2nc(Nc3ccncn3)cc(Nc3ccncn3)n2)c2ccccc21 [Example 2-3-5, 2-{1-[(3,5-dimethyl-1,2-oxazol-4-yl)methyl]-1H-indazol-3-yl}-N,N′-di(pyrimidin-4-yl)pyrimidine-4,6-diamine]
6.55	< 5.00		COCc1noc(Cn2nc(-c3ncc(OC)c(Nc4ccncc4)n3)c3ccccc32)n1 [Example 2-2-4, 5-methoxy-2-(1-{[3-(methoxymethyl)-1,2,4-oxadiazol-5-yl]methyl}-1H-indazol-3-yl)-N-(pyridin-4-yl)pyrimidin-4-amine]
6.21	< 5.00		COc1cnc(-c2nn(Cc3c(C(F)(F)F)nnn3C)c3ccccc23)nc1Nc1ccncc1 [Example 2-1-8, 5-methoxy-2-(1-{[1-methyl-4-(trifluoromethyl)-1H-1,2,3-triazol-5-yl]methyl}-1H-indazol-3-yl)-N-(pyridin-4-yl)pyrimidin-4-amine]
